# Measurements: patent US20240269139A1, “COMPOUNDS FOR TARGETED PROTEIN DEGRADATION OF KINASES” (DANA-FARBER CANCER INSTITUTE, INC., priority 2020, published 2024)
# Read-outs that look alike come from different tables or passages of the source.
# Experiments:
# Format in all cases: cell-based
# [1] = target: protein kinases (human kinome) (Homo sapiens, UniProt P06239)
# [2] = target: protein kinases (human kinome) (Homo sapiens, UniProt P54646); details: for logFC: PRKAA2 (P54646)
# [3] = target: T1, protein kinases (human kinome) (Homo sapiens, UniProt Q6PHR2); details: for logFC ULK3: ULK3 (Q6PHR2-1)
# T1 sequence (Q6PHR2 1-472): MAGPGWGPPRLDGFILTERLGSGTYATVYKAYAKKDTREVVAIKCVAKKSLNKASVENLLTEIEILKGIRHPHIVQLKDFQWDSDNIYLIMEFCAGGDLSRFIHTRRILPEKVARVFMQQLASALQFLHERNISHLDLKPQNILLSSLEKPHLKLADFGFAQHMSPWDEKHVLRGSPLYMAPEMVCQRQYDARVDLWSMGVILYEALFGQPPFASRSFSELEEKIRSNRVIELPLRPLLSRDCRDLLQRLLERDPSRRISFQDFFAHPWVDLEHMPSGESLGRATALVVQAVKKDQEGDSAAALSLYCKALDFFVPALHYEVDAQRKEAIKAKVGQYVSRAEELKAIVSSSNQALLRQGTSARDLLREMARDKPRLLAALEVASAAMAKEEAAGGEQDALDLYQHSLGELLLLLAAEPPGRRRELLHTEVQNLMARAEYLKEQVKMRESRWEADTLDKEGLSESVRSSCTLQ
# [4] = target: T2, protein kinases (human kinome) (Homo sapiens, UniProt Q9H8X2); details: IPPK (Q9H8X2)
# T2 sequence (Q9H8X2 1-491): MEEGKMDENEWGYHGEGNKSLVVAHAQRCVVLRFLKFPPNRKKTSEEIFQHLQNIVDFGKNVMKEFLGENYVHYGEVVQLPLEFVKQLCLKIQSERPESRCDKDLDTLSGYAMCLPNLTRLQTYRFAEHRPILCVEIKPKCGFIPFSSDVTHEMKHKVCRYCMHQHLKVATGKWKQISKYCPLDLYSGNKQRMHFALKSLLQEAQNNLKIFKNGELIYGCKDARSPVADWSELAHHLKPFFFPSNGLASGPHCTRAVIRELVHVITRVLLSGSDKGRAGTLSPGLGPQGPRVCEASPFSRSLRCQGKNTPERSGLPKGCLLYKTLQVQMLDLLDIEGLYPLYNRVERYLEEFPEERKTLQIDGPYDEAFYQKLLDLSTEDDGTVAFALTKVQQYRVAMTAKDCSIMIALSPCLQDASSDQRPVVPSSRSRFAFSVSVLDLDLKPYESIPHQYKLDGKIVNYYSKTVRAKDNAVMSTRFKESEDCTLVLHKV
# Chain of protein kinases (human kinome) (Homo sapiens, UniProt P06239) (P06239 whole entry): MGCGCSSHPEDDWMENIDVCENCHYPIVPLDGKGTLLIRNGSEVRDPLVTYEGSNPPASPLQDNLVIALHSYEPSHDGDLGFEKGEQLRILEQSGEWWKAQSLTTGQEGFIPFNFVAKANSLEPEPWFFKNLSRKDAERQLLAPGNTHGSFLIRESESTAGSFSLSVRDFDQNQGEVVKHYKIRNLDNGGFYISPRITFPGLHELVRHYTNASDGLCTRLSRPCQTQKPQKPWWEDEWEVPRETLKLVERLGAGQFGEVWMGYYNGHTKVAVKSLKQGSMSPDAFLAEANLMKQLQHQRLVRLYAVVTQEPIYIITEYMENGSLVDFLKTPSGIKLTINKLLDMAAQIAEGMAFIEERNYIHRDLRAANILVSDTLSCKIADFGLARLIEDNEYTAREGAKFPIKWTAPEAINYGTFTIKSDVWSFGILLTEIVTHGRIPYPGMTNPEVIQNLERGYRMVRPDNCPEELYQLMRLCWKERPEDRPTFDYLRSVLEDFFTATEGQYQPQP
# Chain of protein kinases (human kinome) (Homo sapiens, UniProt P54646) (P54646 whole entry): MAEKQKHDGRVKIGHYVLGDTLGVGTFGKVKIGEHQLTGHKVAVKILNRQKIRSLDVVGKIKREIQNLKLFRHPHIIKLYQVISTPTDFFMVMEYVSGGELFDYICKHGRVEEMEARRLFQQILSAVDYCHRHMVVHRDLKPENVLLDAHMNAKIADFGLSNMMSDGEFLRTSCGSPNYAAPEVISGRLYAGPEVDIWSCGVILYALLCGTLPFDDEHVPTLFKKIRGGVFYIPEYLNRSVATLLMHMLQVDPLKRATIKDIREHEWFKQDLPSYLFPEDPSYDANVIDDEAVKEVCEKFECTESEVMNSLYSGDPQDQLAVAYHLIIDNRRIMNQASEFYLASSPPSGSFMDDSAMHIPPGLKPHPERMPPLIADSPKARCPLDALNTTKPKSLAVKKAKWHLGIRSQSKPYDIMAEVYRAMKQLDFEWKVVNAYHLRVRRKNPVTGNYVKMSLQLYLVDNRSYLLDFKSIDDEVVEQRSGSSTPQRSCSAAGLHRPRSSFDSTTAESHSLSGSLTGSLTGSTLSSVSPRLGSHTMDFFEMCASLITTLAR
structure (smiles),measurement,setting,value
CC(C)S(=O)(=O)c1ccccc1Nc1nc(Nc2ccc(N3CCN(CCOCCNC(=O)CNc4cccc5c4C(=O)N(C4CCC(=O)NC4=O)C5=O)CC3)cc2)ncc1Cl (stereo not drawn) [SK.3.91],logFC LCK,"[1]; LCK P06239-1, experiment wp160, 2 hr",−0.4627
same,logFC LCK,"[1]; LCK P06239-1, experiment wp160, 4 hr",−1.173
same,logFC LCK,"[1]; LCK, accession P06239-1, experiment wp160, 2 hr, direction of change down",−0.4627
same,logFC LCK,"[1]; LCK, accession P06239-1, experiment wp160, 4 hr, direction of change down",−1.173
same,logFC of PRKAA2 (P54646),[2]; Experiment wp172,−0.926
same,logFC,[2]; experiment wp105,−0.9029
same,logFC,[2]; experiment wp172,−0.926
same,logFC of PRKAA2 (P54646),[2]; experiment wp105,−0.9029
same,logFC ULK3 (Q6PHR2-1),"[3]; Experiment wp160, 2 hr",−0.503
same,logFC ULK3 (Q6PHR2-1),[3]; Experiment wp172,−0.8151
same,logFC ULK3,"[3]; experiment wp016, 1 uM",−1.03
same,logFC ULK3,[3]; experiment wp103,−0.9651
same,logFC ULK3,[3]; experiment wp105,−0.837
same,logFC ULK3,"[3]; experiment wp133, 2 hr",−0.5817
same,logFC ULK3,"[3]; experiment wp133, 4 hr",−1.062
same,logFC ULK3,"[3]; experiment wp160, 2 hr",−0.503
same,logFC ULK3,"[3]; experiment wp160, 4 hr",−0.9689
same,logFC ULK3,[3]; experiment wp172,−0.8151
same,logFC ULK3 (Q6PHR2-1),"[3]; experiment wp016, 1 uM",−1.03
same,logFC ULK3 (Q6PHR2-1),[3]; experiment wp103,−0.9651
same,logFC ULK3 (Q6PHR2-1),[3]; experiment wp105,−0.837
same,logFC ULK3 (Q6PHR2-1),"[3]; experiment wp133, 2 hr",−0.5817
same,logFC ULK3 (Q6PHR2-1),"[3]; experiment wp133, 4 hr",−1.062
same,logFC ULK3 (Q6PHR2-1),"[3]; experiment wp160, 4 hr",−0.9689
same,logFC,[4]; experiment wp103,−0.4729
same,logFC,[4]; experiment wp107,−1.001
same,logFC,[4]; experiment wp114,−0.7881
same,logFC,"[4]; experiment wp133, 4 hr",−0.4816
CC(C)S(=O)(=O)c1ccccc1Nc1nc(Nc2ccc(N3CCN(CCOCCOCCNC(=O)CNc4cccc5c4C(=O)N(C4CCC(=O)NC4=O)C5=O)CC3)cc2)ncc1Cl (stereo not drawn) [TL12.186],logFC ULK3,[3]; experiment wp131,−1.074
same,logFC ULK3,[3]; experiment wp137,−1.174
same,logFC ULK3 (Q6PHR2-1),[3]; experiment wp131,−1.074
same,logFC ULK3 (Q6PHR2-1),[3]; experiment wp137,−1.174
same,logFC,[4]; experiment wp131,−0.6311
